# According to US20230106032A1, “IMIDAZOTRIAZINES ACTING ON CANCER VIA INHIBITION OF CDK12” (Bayer Aktiengesellschaft, priority 2020, published 2023):
# Tests used:
# [1] = test system: MDA-MB-231 human breast cancer cells; assay: Proliferation assay MDA-MB-231 (crystal violet); assay type: cell-based; conditions: 96 h, MDA-MB-231 cells, 4 days, read-out: Prolif-MDA MB231 IC50-[mol/l] (median)
# Method: Human tumour cells were originally obtained from the American Type Culture Collection (ATCC), or from the Deutsche Sammlung von Mikroorganismen und Zellkulturen (DSMZ, German Collection of Microorganisms and Cell Cultures). Cultivated tumour cells (CAL-120, human breast adenocarcinoma cells, DSMZ ACC-459; MDA-MB-231, human breast cancer cells, ATCC HTB-26) were plated at a density of 4,000 cells/well in a 96-well multititer plate in 200 microL of their respective growth medium supplemented 10% fetal calf serum. After 24 hours, the cells of one plate (zero-point plate) were stained with crystal violet (see below), while the medium of the other plates was supplemented with the test substances in various concentrations (0 micromol/L, as well as in the range of 0.01-10 micromol/L; the final concentration of the solvent dimethyl sulfoxide was adjusted to 0.1%) using a Tecan HP D300 Digital Dispenser. The cells were incubated for 4 days in the presence of test substances. Cell proliferation was determined by staining the cells with crystal violet: the cells were fixed by adding 20 microL/measuring point of an 11% glutaric aldehyde solution for 15 minutes at room temperature. After three washing cycles of the fixed cells with water, the plates were dried at room temperature. The cells were stained by adding 100 microL/measuring point of a 0.1% crystal violet solution (pH 3.0). After three washing cycles of the stained cells with water, the plates were dried at room temperature. The dye was dissolved by adding 100 microL/measuring point of a 10% acetic acid solution. The extinction was determined by photometry at a wavelength of 595 nm. The change of cell number, in percent, was calculated by normalization of the measured values to the extinction values of the zero-point plate (=0%) and the extinction of the untreated (0 μM) cells (=100%). The IC50 values (inhibitory concentration at 50% of maximal effect) were determined by means of a 4 parameter fit.
# [2] = biological target: T1, CDK12 (Homo sapiens, UniProt Q9NYV4); assay: CDK12 nuclear protein level: immunofluorescence/high content analysis in CAL-120 cells; assay type: cell-based; conditions: for DC50: CAL-120 cells, 24 h, nuclear CDK12 staining, read-out: CDK12 degradation IF DC50-[mol/l] (median); for (IC50 CDK12 high ATP) to (Degradation DC50 CDK12) ratio: IC50 CDK12 hATP (Table 2) divided by DC50 CDK12 IF (Table 8)
# T1 construct: endogenous in cells; host or cells: CAL-120 human breast cancer cells (DSMZ ACC 459)
# T1 sequence (Q9NYV4 whole entry): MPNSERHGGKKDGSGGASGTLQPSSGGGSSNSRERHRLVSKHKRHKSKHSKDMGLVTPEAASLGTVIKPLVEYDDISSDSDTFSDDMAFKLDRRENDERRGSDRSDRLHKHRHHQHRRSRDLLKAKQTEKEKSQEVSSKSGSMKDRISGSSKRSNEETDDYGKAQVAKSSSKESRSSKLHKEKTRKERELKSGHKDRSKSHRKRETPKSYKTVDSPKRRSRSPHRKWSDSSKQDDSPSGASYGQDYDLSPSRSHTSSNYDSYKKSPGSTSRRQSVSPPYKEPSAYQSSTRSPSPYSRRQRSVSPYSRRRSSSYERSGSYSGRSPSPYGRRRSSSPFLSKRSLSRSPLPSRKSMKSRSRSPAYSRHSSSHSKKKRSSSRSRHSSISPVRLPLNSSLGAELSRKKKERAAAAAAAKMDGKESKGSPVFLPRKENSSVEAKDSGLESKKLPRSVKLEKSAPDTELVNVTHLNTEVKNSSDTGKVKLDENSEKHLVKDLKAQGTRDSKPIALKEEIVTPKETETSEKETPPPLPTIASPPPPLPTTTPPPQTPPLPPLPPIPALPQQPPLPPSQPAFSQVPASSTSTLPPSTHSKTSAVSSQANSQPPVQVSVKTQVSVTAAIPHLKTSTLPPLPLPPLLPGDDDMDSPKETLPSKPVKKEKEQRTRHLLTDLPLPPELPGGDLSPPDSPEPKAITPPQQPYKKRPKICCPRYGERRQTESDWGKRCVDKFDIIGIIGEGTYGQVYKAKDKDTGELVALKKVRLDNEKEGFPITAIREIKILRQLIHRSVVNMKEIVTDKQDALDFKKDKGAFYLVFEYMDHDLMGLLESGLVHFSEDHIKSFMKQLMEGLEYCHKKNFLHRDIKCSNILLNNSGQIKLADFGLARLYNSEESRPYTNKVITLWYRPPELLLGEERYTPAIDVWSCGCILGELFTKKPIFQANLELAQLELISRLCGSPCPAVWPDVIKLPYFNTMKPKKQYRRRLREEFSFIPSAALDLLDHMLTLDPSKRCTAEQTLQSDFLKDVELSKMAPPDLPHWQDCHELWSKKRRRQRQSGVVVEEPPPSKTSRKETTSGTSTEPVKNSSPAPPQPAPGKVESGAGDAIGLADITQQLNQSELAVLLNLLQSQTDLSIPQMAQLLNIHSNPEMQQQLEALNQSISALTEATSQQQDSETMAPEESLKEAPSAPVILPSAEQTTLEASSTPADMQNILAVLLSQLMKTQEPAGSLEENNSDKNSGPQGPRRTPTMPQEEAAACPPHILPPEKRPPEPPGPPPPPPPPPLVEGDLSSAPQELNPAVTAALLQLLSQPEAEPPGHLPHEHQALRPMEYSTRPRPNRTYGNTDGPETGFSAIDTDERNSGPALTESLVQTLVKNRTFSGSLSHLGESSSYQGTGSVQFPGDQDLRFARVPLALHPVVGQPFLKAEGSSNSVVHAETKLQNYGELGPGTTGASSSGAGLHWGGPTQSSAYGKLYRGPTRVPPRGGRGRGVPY
# T1 sequence (O75909 whole entry partner): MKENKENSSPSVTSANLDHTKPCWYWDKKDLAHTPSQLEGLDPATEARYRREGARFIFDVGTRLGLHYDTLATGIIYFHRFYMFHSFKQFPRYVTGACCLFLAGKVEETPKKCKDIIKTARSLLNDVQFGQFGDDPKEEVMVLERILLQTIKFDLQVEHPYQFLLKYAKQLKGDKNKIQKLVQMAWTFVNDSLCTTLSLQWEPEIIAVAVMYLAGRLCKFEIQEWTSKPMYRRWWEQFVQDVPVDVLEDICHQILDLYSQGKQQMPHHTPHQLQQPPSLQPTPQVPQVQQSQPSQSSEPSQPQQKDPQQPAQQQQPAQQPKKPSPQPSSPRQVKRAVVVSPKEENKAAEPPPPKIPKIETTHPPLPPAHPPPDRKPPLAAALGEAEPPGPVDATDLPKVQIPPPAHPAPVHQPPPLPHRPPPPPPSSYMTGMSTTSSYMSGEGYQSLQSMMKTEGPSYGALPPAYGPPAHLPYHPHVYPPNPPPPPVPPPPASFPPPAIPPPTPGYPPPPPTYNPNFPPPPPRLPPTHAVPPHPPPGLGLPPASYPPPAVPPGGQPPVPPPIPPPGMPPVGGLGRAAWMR
# Method: In the context of the present invention, the term “DC50 CDK12” refers to the DC50 values obtained according to the assay described in this section (6) herein below, i.e. the DC50 values for the degradation of CDK12.
# CAL-120 human breast cancer cells (DSMZ ACC 459) are seeded in 1536-well microtiter plates (800 cells per well) containing 50 nanoL of compounds in Dose-Response. Control wells received DMSO or Reference Example 1. Plates are then incubated for 24 h at 37° C. in an humidified incubator and fixed with 4% PFA for 10 min. Then immunofluorescence (IF) against CDK12 (CellSignalling CDK12 Antibody #11973, rabbit, 1:100 dilution) is performed using standard IF protocols. Cells are then stained with Hoechst 33342 (Life Technologies, H-1399, 0.1 microg/ml) and imaged on an automated confocal microscopy system (e.g. Perkin Elmer Opera Phenix). Nuclear and cytoplasmic intensity as well as the nuclear/cytoplasmic intensity ratio is determined by automated image analysis using custom generated scripts (MetaXpress). Data is then transferred to Genedata Screener software, normalized to DMSO and control and DC50 values (degrading concentration to achieve 50% reduction of nuclear CDK12 staining intensity relative to controls) are reported.
IC50 [1] [nM],DC50 [2] [nM],(IC50 CDK12 high ATP) to (Degradation DC50 CDK12) ratio [2],SMILES
42,6.8,751,"Brc1cnc2c(NCc3nc4ccccc4[nH]3)nc(N3CCOCC3)nn12 [Example 1, N-[(1H-benzimidazol-2-yl)methyl]-7-bromo-2-(morpholin-4-yl)imidazo[2,1-f][1,2,4]triazin-4-amine]"
,4.83,1444,"N#Cc1cnc2c(NCc3nc4ccccc4[nH]3)nc(N3CCOCC3)nn12 [Example 2, 4-{[(1H-benzimidazol-2-yl)methyl]amino}-2-(morpholin-4-yl)imidazo[2,1-f][1,2,4]triazine-7-carbonitrile]"
,36,>556,"Fc1cccc(-c2cnc3c(NCc4nc5ccccc5[nH]4)nc(N4CCOCC4)nn23)c1 [Example 3, N-[(1H-benzimidazol-2-yl)methyl]-7-(3-fluorophenyl)-2-(morpholin-4-yl)imidazo[2,1-f][1,2,4]triazin-4-amine]"
59.2,13,76,"C[C@@H]1CN(c2nc(NCc3nc4ccccc4[nH]3)c3ncc(Br)n3n2)C[C@H](C)O1 [Example 4, N-[(1H-benzimidazol-2-yl)methyl]-7-bromo-2-[rel-(2R,6S)-2,6-dimethylmorpholin-4-yl]imidazo[2,1-f][1,2,4]triazin-4-amine]"
,2.07,66,"C[C@@H]1CN(c2nc(NCc3nc4c(F)c(F)ccc4[nH]3)c3ncc(Br)n3n2)C[C@H](C)O1 [Example 5, 7-bromo-N-[(4,5-difluoro-1H-benzimidazol-2-yl)methyl]-2-[rel-(2R,6S)-2,6-dimethylmorpholin-4-yl]imidazo[2,1-f][1,2,4]triazin-4-amine]"
71,3.84,>4836,"CN1CCN(c2nc(NCc3nc4ccccc4[nH]3)c3ncc(Br)n3n2)CC1 [Example 6, N-[(1H-benzimidazol-2-yl)methyl]-7-bromo-2-(4-methylpiperazin-1-yl)imidazo[2,1-f][1,2,4]triazin-4-amine]"
7.93,0.992,1272,"Fc1ccc2[nH]c(CNc3nc(N4CCOCC4)nn4c(Br)cnc34)nc2c1F [Example 7, 7-bromo-N-[(4,5-difluoro-1H-benzimidazol-2-yl)methyl]-2-(morpholin-4-yl)imidazo[2,1-f][1,2,4]triazin-4-amine]"
14.5,0.527,10707,"Brc1cnc2c(NCc3nc4ccccc4[nH]3)nc(N3CCNCC3)nn12 [Example 8, N-[(1H-benzimidazol-2-yl)methyl]-7-bromo-2-(piperazin-1-yl)imidazo[2,1-f][1,2,4]triazin-4-amine]"
9.6,0.575,8519,"C[C@@H]1CN(c2nc(NCc3nc4ccccc4[nH]3)c3ncc(Br)n3n2)C[C@H](C)N1 [Example 9, N-[(1H-benzimidazol-2-yl)methyl]-7-bromo-2-[rel-(3R,5S)-3,5-dimethylpiperazin-1-yl]imidazo[2,1-f][1,2,4]triazin-4-amine]"
2.49,0.132,10329,"Fc1ccc2[nH]c(CNc3nc(N4CCNCC4)nn4c(Br)cnc34)nc2c1F [Example 10, 7-bromo-N-[(4,5-difluoro-1H-benzimidazol-2-yl)methyl]-2-(piperazin-1-yl)imidazo[2,1-f][1,2,4]triazin-4-amine]"
0.948,0.111,5221,"C[C@@H]1CN(c2nc(NCc3nc4c(F)c(F)ccc4[nH]3)c3ncc(Br)n3n2)C[C@H](C)N1 [Example 11, 7-bromo-N-[(4,5-difluoro-1H-benzimidazol-2-yl)methyl]-2-[rel-(3R,5S)-3,5-dimethylpiperazin-1-yl]imidazo[2,1-f][1,2,4]triazin-4-amine]"
111,4.35,1084,"Fc1cccc2[nH]c(CNc3nc(N4CCOCC4)nn4c(Br)cnc34)nc12 [Example 12, 7-bromo-N-[(4-fluoro-1H-benzimidazol-2-yl)methyl]-2-(morpholin-4-yl)imidazo[2,1-f][1,2,4]triazin-4-amine]"
27.9,1.79,742,"COc1cccc2[nH]c(CNc3nc(N4CCOCC4)nn4c(Br)cnc34)nc12 [Example 13, 7-bromo-N-[(4-methoxy-1H-benzimidazol-2-yl)methyl]-2-(morpholin-4-yl)imidazo[2,1-f][1,2,4]triazin-4-amine]"
3.91,0.495,4066,"COc1cccc2[nH]c(CNc3nc(N4C[C@@H](C)N[C@@H](C)C4)nn4c(Br)cnc34)nc12 [Example 14, 7-bromo-2-[rel-(3R,5S)-3,5-dimethylpiperazin-1-yl]-N-[(4-methoxy-1H-benzimidazol-2-yl)methyl]imidazo[2,1-f][1,2,4]triazin-4-amine]"
5.65,1.16,1790,"COc1cccc2[nH]c(CNc3nc(N4CCNCC4)nn4c(Br)cnc34)nc12 [Example 15, 7-bromo-N-[(4-methoxy-1H-benzimidazol-2-yl)methyl]-2-(piperazin-1-yl)imidazo[2,1-f][1,2,4]triazin-4-amine]"
13.1,1.32,4779,"COc1cccc2[nH]c(CNc3nc(N4CCN(C)CC4)nn4c(Br)cnc34)nc12.O=CO [Example 16, 7-bromo-N-[(4-methoxy-1H-benzimidazol-2-yl)methyl]-2-(4-methylpiperazin-1-yl)imidazo[2,1-f][1,2,4]triazin-4-amine Formate (1/1)]"
,7.62,15,"OC[C@@H]1CCCCN1c1nc(NCc2nc3ccccc3[nH]2)c2ncc(Br)n2n1 [Example 17, [(2S)-1-(4-{[(1H-benzimidazol-2-yl)methyl]amino}-7-bromoimidazo[2,1-f][1,2,4]triazin-2-yl)piperidin-2-yl]methanol]"
3.45,0.631,2854,"C[C@@H]1CN(c2nc(NCc3nc4c(F)cccc4[nH]3)c3ncc(Br)n3n2)C[C@H](C)N1 [Example 18, 7-bromo-2-[rel-(3R,5S)-3,5-dimethylpiperazin-1-yl]-N-[(4-fluoro-1H-benzimidazol-2-yl)methyl]imidazo[2,1-f][1,2,4]triazin-4-amine]"
2.73,0.513,12546,"C[C@@H]1CN(c2nc(NCc3nc4cc(F)ccc4[nH]3)c3ncc(Br)n3n2)C[C@H](C)N1 [Example 19, 7-bromo-2-[rel-(3R,5S)-3,5-dimethylpiperazin-1-yl]-N-[(5-fluoro-1H-benzimidazol-2-yl)methyl]imidazo[2,1-f][1,2,4]triazin-4-amine]"
3.73,0.842,4106,"Fc1ccc2[nH]c(CNc3nc(N4CCOCC4)nn4c(Br)cnc34)nc2c1 [Example 20, 7-bromo-N-[(5-fluoro-1H-benzimidazol-2-yl)methyl]-2-(morpholin-4-yl)imidazo[2,1-f][1,2,4]triazin-4-amine]"
